The results in this text go back to patent US9284350B2, “IAP BIR domain binding compounds” (Pharmascience Inc., priority 2010, dated 2016).

For one test, the target named is T1, XIAP (Homo sapiens, UniProt P98170).
T1 construct: fused on or other part: GST tag at the N-terminus (pGEX4T vectors)
Nature of the test: Fluorescence polarization-based competition assay, XIAP. In kind it is binding. The conditions noted are these: FP assay, ki derived from IC50. How it is done:
(§1) Binding of compounds of Formula 1 to target BIR domains was measured using a fluorescence-polarization (FP) assay. Fluorescence-polarization was evaluated using a GENios microplate reader (TECAN) Pro instrument with the excitation filter set at 485 nm and the emission filter set at 535 nm. The final amount of protein used in the assay corresponds to the amount of protein necessary to obtain 80% of the maximum FP value in a P1 or P2 fluorescent (FITC) probe saturation experiment. The compounds potency (IC50) and selectivity, was assessed in the presence of the amount of target protein established, fluorescent probe, and a 10 point serial dilution in assay buffer (50 mM Hepes, pH 7.5, 250 mcg/mL γ-globulin, 2 mM DTT, 1% DMSO) of the selected compounds.
(§2) Assays were carried out in duplicate using untreated black 96-well plates (Corning #3915) and a total volume of 100 microliters, containing 25 microliters of fluorescent probe at a final concentration of 2 nM in assay buffer, 25 microliters of diluted compound, 25 microliters of BIR protein into assay buffer and 25 microliters of assay buffer. Buffer only (blank) or probe only in buffer (G-factor) were used as controls for calibration. The plate was incubated at room temperature in the dark for one hour and FP values in millipolarization units (mP) were recorded using Genios Pro FP reader.
(§3) The measured FP values (mP) were then plotted against compound concentration, and IC50 values were calculated based on a sigmoidal dose-response (variable-slope) curve fit using GraphPad Prism version 4.02 for Windows, GraphPad Software, San Diego Calif. USA and/or CambridgeSoft BioAssay Enterprise Version 10.1. The IC50 value is the concentration of test compound at which 50% of the tracer was displaced. ki values were derived from the calculated IC50 values as described above and according to the equation described in Nikolovska-Coleska, Z. (2004) Anal Biochem 332, 261-273. The results are presented in Table 2, wherein A=less than 25 nM; B=less than 250 nM; C=less than 1000 nM; and D=greater than 1000 nM.
(Fluorescence polarisation rises when a labelled molecule tumbles more slowly, as on binding a larger partner.)

Another test deals with T2, c-IAP1 (Homo sapiens, UniProt Q13490).
T2 construct: GST (N); made in house; host or cells: E. coli DH5α
T2 sequence (Q13490 251-363): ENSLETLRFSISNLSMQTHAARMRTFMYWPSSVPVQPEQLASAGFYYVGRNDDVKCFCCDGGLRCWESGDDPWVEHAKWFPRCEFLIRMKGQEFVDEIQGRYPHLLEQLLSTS
Nature of the test: Fluorescence polarization-based competition assay, c-IAP1. To be noted: FP assay, ki derived from IC50. In kind it is binding. The protocol: as §1, §2, §3

In the next test the target is T3, cIAP2 (Homo sapiens, UniProt Q13489).
T3 construct: GST (N); made in house; host or cells: E. coli DH5α
T3 sequence (Q13489 236-349): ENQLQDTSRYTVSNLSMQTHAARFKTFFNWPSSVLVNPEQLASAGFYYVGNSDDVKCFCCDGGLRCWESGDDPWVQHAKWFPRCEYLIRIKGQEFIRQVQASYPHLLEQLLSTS
Nature of the test: Fluorescence polarization-based competition assay, cIAP2. It is filed as binding. The conditions noted are these: FP assay, ki derived from IC50. How it is done:
as §1, §2, §3

The subject of test [1] is Colorectal carcinoma HCT116 cells. Nature of the test: Cell death assay (MTT) in combination with HGS ETR1. To be noted: with HGS ETR1 30 ng/ml, 72 hours, read-out: HCT116+ mapatubimap EC50. It is filed as cell-based. How it is done:
Colorectal carcinoma HCT116 cells were cultured as monolayers in 96 well plates at a density of 2000 cells per well in McCoy's 5a medium (HyClone) supplemented with 2.2 g/L sodium bicarbonate, 10% FBS (HyClone) and 1% penicillin/streptomycin (HyClone). 24 hours later, triplicate wells were treated with HGS ETR1 (30 ng/ml) in combination with compound. Cells were incubated in the presence of compound and HGS agonistic Trail receptor antibody, ETR1 (Mapatumamab, 30 ng/ml) for 72 hours. Metabolic viability of remaining cells was assessed by MTT (thiazolyl blue tetrazolium bromide, Sigma) assay.
EC50 values (50% cell survival in the presence of compound as compared to untreated controls) were calculated from survival curves using BioAssay software (CambridgeSoft) and GraphPad Prism (Graph Pad Software Inc.). The results are provided in Table 3, below, wherein A=less than 50 nM; B=less than 250 nM; C=less than 1000 nM; and D=greater than 1000 nM.

T1 sequence (P98170 246-497 limits assumed): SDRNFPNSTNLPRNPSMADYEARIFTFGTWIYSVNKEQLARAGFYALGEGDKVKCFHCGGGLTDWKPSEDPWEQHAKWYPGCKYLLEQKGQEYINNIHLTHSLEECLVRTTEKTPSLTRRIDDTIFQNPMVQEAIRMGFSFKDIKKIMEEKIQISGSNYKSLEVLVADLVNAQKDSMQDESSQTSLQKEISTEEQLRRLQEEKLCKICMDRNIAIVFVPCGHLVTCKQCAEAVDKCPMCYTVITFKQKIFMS

In general, Ki refers to the dissociation constant of the complex between target and ligand, obtained from inhibition or displacement. A low value points to a stronger hold on the target. The EC50 is the midpoint of the concentration-response curve. Take `CCO[C@H](C)[C@H](NC(=O)[C@H](C)NC)C(=O)N1CCC[C@H]1CN(CCc1ccc(F)cc1)C(=O)c1cn(-c2ccc(F)cc2)cn1` [Compound 79]: the Ki was less than 250 nM at XIAP, less than 25 nM on c-IAP1 and less than 25 nM at cIAP2. For the same molecule, the EC50 in test [1] is less than 50 nM.

With `CCO[C@H](C)[C@H](NC(=O)[C@H](C)NC)C(=O)N1CCC[C@H]1CN(CCc1ccc(F)cc1)C(=O)c1cn2cc(F)cnc2n1` [Compound 80], the inhibitory constant (Ki) is less than 250 nM at XIAP, less than 25 nM on c-IAP1 and less than 25 nM at cIAP2. The EC50 in test [1] was less than 50 nM.

`CCN[C@@H](C)C(=O)N[C@H](C(=O)N1CCC[C@H]1CN(CCc1ccccc1)C(=O)c1cn2cccnc2n1)C1CCOCC1` [Compound 4]: the results for the inhibitory constant (Ki) on XIAP, at c-IAP1 and on cIAP2 were less than 1000 nM, less than 250 nM and less than 250 nM, respectively. Besides, the EC50 in test [1] was more than 1000 nM.

Turning to `CN[C@@H](C)C(=O)N[C@H](C(=O)N1CCC[C@H]1CN(CCc1ccc(F)cc1)C(=O)c1cn2cc(F)cnc2n1)C1CCCCC1` [Compound 103], the Ki is less than 250 nM at XIAP, less than 25 nM on c-IAP1 and less than 25 nM on cIAP2. Also, the concentration for a half-maximal effect (EC50) in test [1] is less than 50 nM.

As to `CCO[C@H](C)[C@H](NC(=O)[C@H](C)NC)C(=O)N1CCC[C@H]1CN(CCc1ccc(F)cc1)C(=O)c1cn(C)cn1` [Compound 76], the Ki on XIAP was less than 250 nM; at c-IAP1, less than 25 nM; at cIAP2, less than 25 nM. Moreover, in test [1], the EC50 is less than 50 nM.

As to `CN[C@@H](C)C(=O)N[C@H](C(=O)N1C[C@@H](Oc2ccc(OC(F)(F)F)cc2)C[C@H]1CN(CCc1ccc(F)cc1)C(=O)c1cn2ccccc2n1)C(C)(C)C` [Compound 111], the Ki at XIAP, at c-IAP1 and on cIAP2 was less than 25 nM in each case. In addition, the 50% effective concentration (EC50) in test [1] is less than 50 nM.

For the molecule `CN[C@@H](C)C(=O)N[C@H](C(=O)N1C[C@@H](Oc2ccc(OC)cc2)C[C@H]1CN(CCc1ccc(F)cc1)C(=O)c1cn2ccccc2n1)C(C)(C)C` [Compound 105], the Ki on XIAP, at c-IAP1 and at cIAP2 was less than 25 nM each time. The EC50 in test [1] is less than 50 nM.

Turning to `CN[C@@H](C)C(=O)N[C@H](C(=O)N1CCC[C@H]1CN(CCc1ccc(F)cc1)C(=O)c1cn2ccccc2n1)C1CCCCC1` [Compound 18], the Ki on XIAP was less than 250 nM; on c-IAP1 it was less than 25 nM; at cIAP2, less than 25 nM. Further, the EC50 in test [1] was less than 50 nM.

In the case of `CN[C@@H](C)C(=O)N[C@H](C(=O)N1C[C@@H](Oc2ccc(F)cc2)C[C@H]1CN(CCc1ccc(F)cc1)C(=O)c1cn(C)cn1)C(C)(C)C` [Compound 82], the Ki on XIAP, at c-IAP1 and on cIAP2 was less than 25 nM in each case. The concentration for a half-maximal effect (EC50) in test [1] is less than 50 nM.

Consider `CN[C@@H](C)C(=O)N[C@H](C(=O)N1C[C@@H](Oc2ccc(F)cc2)C[C@H]1CN(CCc1ccc(F)cc1)C(=O)c1cn2c(n1)CCC2)C(C)(C)C` [Compound 83], for which the Ki at XIAP, on c-IAP1 and on cIAP2 was less than 25 nM in each case. The EC50 in test [1] was less than 50 nM.

For `CCO[C@H](C)[C@H](NC(=O)[C@H](C)NC)C(=O)N1CCC[C@H]1CN(CCc1ccc(F)cc1)C(=O)c1cn2ccccc2n1` [Compound 78], the Ki is less than 250 nM at XIAP, less than 25 nM on c-IAP1 and less than 25 nM at cIAP2. In test [1], the EC50 was less than 50 nM.

Turning to `CN[C@@H](C)C(=O)N[C@H](C(=O)N1C[C@@H](OCc2ccccc2)C[C@H]1CN(CCc1ccc(F)cc1)C(=O)c1cn2cccnc2n1)C(C)(C)C` [Compound 47], the figures for the inhibitory constant (Ki) on XIAP, on c-IAP1 and at cIAP2 were less than 250 nM, less than 25 nM and less than 25 nM, respectively. The concentration for a half-maximal effect (EC50) in test [1] is less than 250 nM.

As for `CCN[C@@H](C)C(=O)N[C@H](C(=O)N1CCC[C@H]1CN(CCc1ccccc1)C(=O)c1cn2cccnc2n1)C1CCCCC1` [Compound 2], the results for the inhibition constant Ki on XIAP, at c-IAP1 and at cIAP2 were more than 1000 nM, less than 250 nM and less than 250 nM, respectively. Moreover, the half-maximal effective concentration (EC50) in test [1] is less than 1000 nM.

`CN[C@@H](C)C(=O)N[C@H](C(=O)N1C[C@@H](Oc2ccc(F)cc2)C[C@H]1CN(CCc1ccc(F)cc1)C(=O)c1cn2cc(F)cnc2n1)[C@@H](C)OC` [Compound 107]: the Ki on XIAP is less than 250 nM; on c-IAP1 it was less than 25 nM; on cIAP2, less than 25 nM. The concentration giving a half-maximal response (EC50) in test [1] is less than 50 nM.

Consider `CN[C@@H](C)C(=O)N[C@H](C(=O)N1CCC[C@H]1CN(CCc1ccc(F)cc1)C(=O)c1cn(C2CCOCC2)cn1)C(C)(C)C` [Compound 95], for which the Ki on XIAP is less than 250 nM; at c-IAP1, less than 25 nM; on cIAP2, less than 25 nM. In addition, in test [1], the EC50 is less than 50 nM.

For the molecule `CN[C@@H](C)C(=O)N[C@H](C(=O)N1CCC[C@H]1CN(CCc1ccc(F)cc1)C(=O)c1cn2c(n1)CCC2)C(C)(C)C` [Compound 67], the inhibition constant (Ki) at XIAP was less than 250 nM; at c-IAP1, less than 25 nM; on cIAP2, less than 25 nM. The EC50 in test [1] is less than 50 nM.

Regarding `CN[C@@H](C)C(=O)N[C@H](C(=O)N1C[C@@H](Oc2ccc(F)cc2)C[C@H]1CN(CCc1ccc(F)cc1)C(=O)c1cn2cc(F)cnc2n1)C(C)(C)C` [Compound 116], the inhibition constant Ki on XIAP, at c-IAP1 and at cIAP2 was less than 25 nM each time. The EC50 in test [1] was less than 50 nM.

On to `CN[C@@H](C)C(=O)N[C@H](C(=O)N1C[C@@H](Oc2ccc(F)cc2)C[C@H]1CN(CCc1ccc(F)cc1)C(=O)c1cn2c(n1)CCC2)[C@@H](C)OC` [Compound 114], for which the Ki at XIAP, at c-IAP1 and at cIAP2 was less than 25 nM throughout. Also, the concentration for a half-maximal effect (EC50) in test [1] is less than 50 nM.

Regarding `CN[C@@H](C)C(=O)N[C@H](C(=O)N1C[C@@H](NC(=O)c2ccccc2)C[C@H]1CN(CCc1ccc(F)cc1)C(=O)c1cn2c(n1)CCC2)C(C)(C)C` [Compound 89], the inhibition constant (Ki) on XIAP is less than 250 nM; at c-IAP1, less than 25 nM; at cIAP2 it was less than 25 nM. For the same molecule, the EC50 in test [1] is less than 50 nM.

As to `CN[C@@H](C)C(=O)N[C@H](C(=O)N1CCC[C@H]1CN(CCc1ccc(F)cc1)C(=O)c1ncc(-c2ccccc2)o1)C(C)(C)C` [Compound 123], the inhibitory constant (Ki) on XIAP was less than 250 nM; at c-IAP1, less than 25 nM; on cIAP2, less than 25 nM. Further, the concentration giving a half-maximal response (EC50) in test [1] was less than 50 nM.

For `CN[C@@H](C)C(=O)N[C@H](C(=O)N1CCC[C@H]1CN(CCc1ccc(F)cc1)C(=O)c1cn2c(n1)CCC2)C1CCCCC1` [Compound 113], the values for the Ki on XIAP, at c-IAP1 and at cIAP2 were less than 250 nM, less than 25 nM and less than 25 nM, respectively. Moreover, in test [1], the EC50 was less than 50 nM.

For the molecule `CN[C@@H](C)C(=O)N[C@H](C(=O)N1C[C@@H](NC(=O)c2ccccc2)C[C@H]1CN(CCc1ccc(F)cc1)C(=O)c1cn2cc(F)cnc2n1)C(C)(C)C` [Compound 112], the values for the Ki at XIAP, on c-IAP1 and on cIAP2 were less than 250 nM, less than 25 nM and less than 25 nM, respectively. Further, the 50% effective concentration (EC50) in test [1] was less than 250 nM.

Take `CN[C@@H](C)C(=O)N[C@H](C(=O)N1CCC[C@H]1CN(CCc1ccc(F)cc1)C(=O)c1cn(C(C)C)cn1)C(C)(C)C` [Compound 94]: the Ki was less than 250 nM at XIAP, less than 25 nM at c-IAP1 and less than 25 nM at cIAP2. Also, the EC50 in test [1] is less than 50 nM.

As to `CN[C@@H](C)C(=O)N[C@H](C(=O)N1CCC[C@H]1CN(CCc1ccc(F)cc1)C(=O)c1cnn(-c2ccccc2)c1)C(C)(C)C` [Compound 90], the values for the Ki at XIAP, on c-IAP1 and at cIAP2 were less than 250 nM, less than 25 nM and less than 25 nM, respectively. Also, the EC50 in test [1] is less than 250 nM.

Consider `CN[C@@H](C)C(=O)N[C@H](C(=O)N1CCC[C@H]1CN(CCc1ccc(F)cc1)C(=O)c1cn(C)nn1)C1CCCCC1` [Compound 110], for which the results for the Ki at XIAP, at c-IAP1 and on cIAP2 were less than 250 nM, less than 25 nM and less than 25 nM, respectively. Also, in test [1], the EC50 is less than 50 nM.
